Measured values taken from publication PMC11990670, “Exploring the Volatility, Phase Transitions, and Solubility Properties of Five Halogenated Benzaldehydes” (Molecules, 2025).
Values after ≈ are worked out from the molar mass of the structure shown. Marks after values point to notes of the source that are not given here.

How the values were obtained:
[1] = Vapor pressures of crystalline and liquid phases, static method with capacitance diaphragm gauge; format: physicochemical
Description: A previously described and tested static apparatus was used to measure the vapor pressures of the condensed phases (both crystalline and liquid) of the five compounds studied. This installation employs MKS capacitance diaphragm absolute gauges, operating at self-regulated constant temperatures. Our lab is equipped with three pressure gauges. Gauge I, a Baratron 631A01TBEH (MKS instruments, Andover, MA, USA) (Tgauge = 423 K), measures pressures in the range of 0.5 to 1.3 × 10^2 Pa and operates within a temperature range of 253 to 413 K. Gauge II, the instrument used in this study, is a Baratron 631A11TBFP (MKS instruments, Andover, MA, USA) (Tgauge = 473 K), capable of measuring pressures from 0.5 to 1.3 × 10^3 Pa within a temperature range of 253 to 433 K and gauge III, a Baratron 631D02T8FP (MKS instruments, Andover, MA, USA) (Tgauge = 473 K), designed to measure pressures between 0.5 Pa and 2.6 × 10^2 Pa, also within a temperature range of 253 to 433 K. The temperatures of the samples were measured using a Pt100 platinum resistance thermometer, calibrated by comparison with a standard platinum resistance thermometer (SPRT: Tinsley Precision Instruments Ltd, London, England). To prevent vapor condensation, the tubing connecting the cell containing the condensed sample to the pressure gauge is maintained at a temperature higher than that of the sample but lower than that of the gauge. The uncertainty in temperature measurements is estimated to be u(T/K) = ±0.01, and the expanded uncertainties (0.95 confidence level, k = 2) in pressure measurements are given by the expression U(p/Pa) = 0.1 + 0.0050 (p/Pa) for the gauge used. Samples were thoroughly degassed before starting the vapor pressure measurements, ensuring consistent readings at specific temperatures and eliminating any residual volatile substances, including water.

[2] = Equilibrium solubility in water, saturation shake-flask method with UV-vis; settings: 25 °C, thermodynamic from solid
Experimental: (§1) The concentration was measured by absorbances at 260 nm for 4-chlorobenzaldehyde, 263 nm for 4-bromobenzaldehyde and 2,4-dichlorobenzaldehyde, 297 nm for 2,6-dichlorobenzaldehyde, and 306 nm for 2,3-dichlorobenzaldehyde, using a Cary-60 UV–vis (Agilent) spectrophotometer. X-ray diffraction (XRD) and differential scanning calorimetry of residual solids were used to identify the eventual phase transformations. The purified samples of each compound studied were used for all experimental determinations, including the solubility measurements. After reaching the equilibrium, the residual solid was dried and analyzed using both DSC and XRD. The melting properties obtained from DSC were compared with those of the original purified sample, following the same procedure for the XRD analysis. […] As an example, the supporting information includes two thermograms and two XRD patterns for 2,4-dichlorobenzaldehyde (Figures S1 and S2). […] Equation (4) was derived from Equation (5), which is widely applicable to the solubility of solids.(4) ΔhydrGm°/kJ·mol^−1=9.17−5.71·log10(Scr/mol·m^−3)−ΔcrgGm°/kJ·mol^−1 (5) S=p^°/RTexpΔcrgGm°+ΔhydrGm°/−RT
(§2) An excess amount of each compound was added to a known volume of water in triplicate. […] After stirring, the solid phase was allowed to settle for 2 h. The pH of the saturated solutions was measured using a Mettler Toledo (Greifensee, Switzerland) FiveEasy F20 pH Meter calibrated with standard aqueous solutions (pH 7.00 and 4.01 or 10.1). Those solutions were then filtered through a 0.22 μm syringe hydrophilic filter (13 mm, PTFE, Labfil, Zhejiang, China) and diluted to the required concentration. The concentration of the compounds, expressed in molarity, was measured by absorbances using a Cary-60 UV–vis spectrophotometer (Agilent Technologies, Santa Clara, CA, USA) at 298.15 K (single cell Peltier accessory, ±0.15 K). The results reported in Table 6 are averaged from at least three replicates. Calibration was performed using solutions of known concentrations of each substance in water. These solutions were prepared by adding a precise mass of the substance and a specific volume of the solvent to a flask, then mixing until the substance was fully dissolved. The absorbance of these solutions was measured, and calibration curves were created.

[3] = Gibbs energy of hydration and Henry's law volatility constant calculated from sublimation and solubility data; settings: 25 °C
Experimental: as §1
The standard states in Equation (5) are p° = 1 × 10^5 Pa for ΔcrgGm° , c° = 1 mol·L^−1 for ΔhydrGm° and s° = 1 mol·m^−3 for solubility. Using the experimental results of ΔhydrGm° , calculated through Equation (4), the values of Henry’s law volatility constants, KHpc, were determined in the logarithm form by Equation (6), that was adapted from Modarressi et al..

[4] = pH of the saturated aqueous solutions; format: physicochemical; settings: saturated aqueous solution of the solubility experiment
Experimental: as §1, §2

**Q.** With `O=Cc1c(Cl)cccc1Cl` [2,6-Dichlorobenzaldehyde] as the molecule, how does the vapor pressure p ([1]; crystalline phase, T = 292.72 K) read?
**A.** 0.50 Pa

**Q.** And the vapor pressure p ([1]; crystalline phase, T = 294.67 K)?
**A.** 0.63 Pa

**Q.** And the vapor pressure p ([1]; crystalline phase, T = 296.72 K)?
**A.** 0.81 Pa

**Q.** And the vapor pressure p ([1]; crystalline phase, T = 298.56 K)?
**A.** 1.00 Pa

**Q.** What about the vapor pressure p ([1]; crystalline phase, T = 300.60 K) of the same molecule?
**A.** 1.28 Pa

**Q.** And the vapor pressure p ([1]; crystalline phase, T = 302.53 K)?
**A.** 1.58 Pa

**Q.** What about the vapor pressure p ([1]; crystalline phase, T = 304.58 K) of the same molecule?
**A.** 1.97 Pa

**Q.** And the vapor pressure p ([1]; crystalline phase, T = 306.53 K)?
**A.** 2.49 Pa

**Q.** What about the vapor pressure p ([1]; crystalline phase, T = 308.53 K) of the same molecule?
**A.** 3.07 Pa

**Q.** What about the vapor pressure p ([1]; crystalline phase, T = 310.48 K) of the same molecule?
**A.** 3.74 Pa

**Q.** What about the vapor pressure p ([1]; crystalline phase, T = 312.49 K) of the same molecule?
**A.** 4.61 Pa

**Q.** What about the vapor pressure p ([1]; crystalline phase, T = 314.41 K) of the same molecule?
**A.** 5.68 Pa

**Q.** And the vapor pressure p ([1]; crystalline phase, T = 316.45 K)?
**A.** 7.02 Pa

**Q.** And the vapor pressure p ([1]; crystalline phase, T = 318.40 K)?
**A.** 8.62 Pa

**Q.** What about the vapor pressure p ([1]; crystalline phase, T = 320.45 K) of the same molecule?
**A.** 10.52 Pa

**Q.** What about the vapor pressure p ([1]; crystalline phase, T = 322.40 K) of the same molecule?
**A.** 12.77 Pa

**Q.** What about the vapor pressure p ([1]; crystalline phase, T = 324.42 K) of the same molecule?
**A.** 15.66 Pa

**Q.** And the vapor pressure p ([1]; crystalline phase, T = 326.34 K)?
**A.** 18.87 Pa

**Q.** What about the vapor pressure p ([1]; crystalline phase, T = 328.34 K) of the same molecule?
**A.** 22.67 Pa

**Q.** And the vapor pressure p ([1]; crystalline phase, T = 330.30 K)?
**A.** 27.33 Pa

**Q.** What about the vapor pressure p ([1]; crystalline phase, T = 332.29 K) of the same molecule?
**A.** 32.89 Pa

**Q.** And the vapor pressure p ([1]; crystalline phase, T = 334.27 K)?
**A.** 39.51 Pa

**Q.** And the vapor pressure p ([1]; crystalline phase, T = 336.23 K)?
**A.** 46.91 Pa

**Q.** And the vapor pressure p ([1]; crystalline phase, T = 338.20 K)?
**A.** 56.28 Pa

**Q.** And the vapor pressure p ([1]; liquid phase, T = 344.17 K)?
**A.** 91.46 Pa

**Q.** What about the vapor pressure p ([1]; liquid phase, T = 346.13 K) of the same molecule?
**A.** 103.7 Pa

**Q.** And the vapor pressure p ([1]; liquid phase, T = 348.09 K)?
**A.** 118.4 Pa

**Q.** And the vapor pressure p ([1]; liquid phase, T = 350.07 K)?
**A.** 133.6 Pa

**Q.** What about the vapor pressure p ([1]; liquid phase, T = 352.10 K) of the same molecule?
**A.** 151.3 Pa

**Q.** And the vapor pressure p ([1]; liquid phase, T = 354.09 K)?
**A.** 168.0 Pa

**Q.** And the vapor pressure p ([1]; liquid phase, T = 356.04 K)?
**A.** 190.2 Pa

**Q.** And the vapor pressure p ([1]; liquid phase, T = 358.03 K)?
**A.** 212.4 Pa

**Q.** What about the vapor pressure p ([1]; liquid phase, T = 359.98 K) of the same molecule?
**A.** 239.9 Pa

**Q.** What about the vapor pressure p ([1]; liquid phase, T = 361.98 K) of the same molecule?
**A.** 266.2 Pa

**Q.** What about the vapor pressure p ([1]; liquid phase, T = 363.92 K) of the same molecule?
**A.** 297.7 Pa

**Q.** And the vapor pressure p ([1]; liquid phase, T = 365.92 K)?
**A.** 333.0 Pa

**Q.** And the vapor pressure p ([1]; liquid phase, T = 367.87 K)?
**A.** 372.6 Pa

**Q.** What about the vapor pressure p ([1]; liquid phase, T = 369.87 K) of the same molecule?
**A.** 415.4 Pa

**Q.** And the vapor pressure p ([1]; liquid phase, T = 371.82 K)?
**A.** 456.8 Pa

**Q.** What about the vapor pressure p ([1]; liquid phase, T = 373.82 K) of the same molecule?
**A.** 506.8 Pa

**Q.** What about the vapor pressure p ([1]; liquid phase, T = 375.77 K) of the same molecule?
**A.** 559.6 Pa

**Q.** And the vapor pressure p ([1]; liquid phase, T = 377.79 K)?
**A.** 620.3 Pa

**Q.** What about the vapor pressure p ([1]; liquid phase, T = 379.71 K) of the same molecule?
**A.** 682.3 Pa

**Q.** And the vapor pressure p ([1]; liquid phase, T = 381.71 K)?
**A.** 755.4 Pa

**Q.** And the vapor pressure p ([1]; liquid phase, T = 383.62 K)?
**A.** 827.1 Pa

**Q.** And the vapor pressure p ([1]; supercooled liquid, T = 334.28 K)?
**A.** 48.38 ^d Pa

**Q.** What about the vapor pressure p ([1]; supercooled liquid, T = 335.87 K) of the same molecule?
**A.** 53.45 ^d Pa

**Q.** What about the vapor pressure p ([1]; supercooled liquid, T = 338.22 K) of the same molecule?
**A.** 62.48 ^d Pa

**Q.** What about the vapor pressure p ([1]; supercooled liquid, T = 340.16 K) of the same molecule?
**A.** 71.24 ^d Pa

**Q.** And the vapor pressure p ([1]; supercooled liquid, T = 342.24 K)?
**A.** 81.73 ^d Pa

**Q.** And the solubility at 72 h [2]?
**A.** 1130 µM (≈ 197 µg/mL)

**Q.** And the “Gibbs energy of hydration ΔhydrGm°” value ([3]; calculated by Equation (4))?
**A.** -4.73 kcal/mol

**Q.** What about the “log10(KHpc/kPa·m^3·mol^−1) Henry's law volatility constant” value ([3]; calculated by Equation (6)) of the same molecule?
**A.** −3.07

**Q.** What about the “KHpc×10^3 Henry's law volatility constant” value ([3]; value is KHpc multiplied by 10^3) of the same molecule?
**A.** 0.851 kPa·m^3·mol^−1

**Q.** And the “pH of the saturated solution” value [4]?
**A.** 6.39
